This is an account of results in PubChem BioAssay AID652018 (The Scripps Research Institute Molecular Screening Center, 2013).

The source made the active and inactive calls.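 How the source made its calls: active means at least 50% inhibition of LYPLA1 or LYPLA2 at 300 nM, with no off-target enzyme hit at any dose; inactive means under 50% inhibition on both enzymes, or any off-target hit.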

Experiment [1] addresses Acyl-protein thioesterase 2 (Homo sapiens) (UniProt O95372). Briefly: LYPLA1/LYPLA2 inhibition and anti-target count – cell lysate, competitive ABPP, HEK293T proteome, set 2, selectivity assay for LYPLA1 inhibitor project, late-stage follow-up (AID 652018).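 Further: 0% = DMSO-only band intensity and 100% = blank gel background.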 To be noted: competitive ABPP FP-PEG-Rh gel, stronger effect = higher value.
Experiment [2] addresses Acyl-protein thioesterase 1 (Homo sapiens) (UniProt O75608). The experiment is described as above. The following applies: competitive ABPP FP-PEG-Rh gel, stronger effect = higher value.

For orientation: inhibition means the percentage by which the read-out fell short of the control.

Acyl-protein thioesterase 1 (Homo sapiens), sequence (O75608 whole entry, looked up): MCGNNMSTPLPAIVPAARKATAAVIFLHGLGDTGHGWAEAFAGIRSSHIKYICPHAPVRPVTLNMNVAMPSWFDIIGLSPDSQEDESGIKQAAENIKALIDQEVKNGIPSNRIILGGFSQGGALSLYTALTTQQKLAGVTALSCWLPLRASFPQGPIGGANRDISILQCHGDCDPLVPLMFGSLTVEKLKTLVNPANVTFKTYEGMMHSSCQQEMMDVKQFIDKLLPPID
Acyl-protein thioesterase 2 (Homo sapiens), sequence (O95372 whole entry, looked up): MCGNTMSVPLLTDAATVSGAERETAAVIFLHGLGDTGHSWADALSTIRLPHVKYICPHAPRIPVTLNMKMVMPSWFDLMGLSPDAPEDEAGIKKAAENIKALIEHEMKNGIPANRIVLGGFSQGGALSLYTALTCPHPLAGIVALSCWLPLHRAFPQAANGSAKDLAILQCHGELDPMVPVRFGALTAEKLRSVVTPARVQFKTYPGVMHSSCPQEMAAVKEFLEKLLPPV

With `O=C(CN1CCN(C(=O)n2ncc(C(O)(c3ccccc3)c3ccccc3)n2)CC1)Nc1cc(C(F)(F)F)ccc1Cl`, the inhibition was 100% in experiment [1] (LYPLA2, at 10 µM); 100% in experiment [1] (LYPLA2, inhibition, at 0.3 µM); 100% in experiment [1] (LYPLA2, inhibition, at 1 µM); 95% in experiment [2] (LYPLA1, at 10 µM); 95% in experiment [2] (LYPLA1, inhibition, at 0.3 µM); 95% in experiment [2] (LYPLA1, inhibition, at 1 µM).
As for `COc1ccc(N2CCN(C(=O)n3nccn3)CC2)cc1`, the inhibition in experiment [1] (LYPLA2, at 10 µM) is 100% (inactive); in experiment [1] (LYPLA2, inhibition, at 0.3 µM), 10%; in experiment [1] (LYPLA2, inhibition, at 1 µM), 60%; in experiment [2] (LYPLA1, at 10 µM), 95% (inactive); in experiment [2] (LYPLA1, inhibition, at 0.3 µM), 20%; in experiment [2] (LYPLA1, inhibition, at 1 µM), 80%.
Take `COc1ccc(N2CCN(C(=O)n3ncc(C(O)(c4ccccc4)c4ccccc4)n3)CC2)cc1`: the inhibition in experiment [1] (LYPLA2, at 10 µM) was 100%; in experiment [1] (LYPLA2, inhibition, at 0.3 µM), 75%; in experiment [1] (LYPLA2, inhibition, at 1 µM) it was 100%; in experiment [2] (LYPLA1, at 10 µM) it was 95%; in experiment [2] (LYPLA1, inhibition, at 0.3 µM), 95%; in experiment [2] (LYPLA1, inhibition, at 1 µM), 95%.
As to `COc1ccc(N2CCN(C(=O)n3ncc(-c4ccccc4)n3)CC2)cc1`, the inhibition was 30% (inactive) in experiment [1] (LYPLA2, at 10 µM); 10% in experiment [1] (LYPLA2, inhibition, at 0.3 µM); 30% in experiment [1] (LYPLA2, inhibition, at 1 µM); 30% (inactive) in experiment [2] (LYPLA1, at 10 µM); 20% in experiment [2] (LYPLA1, inhibition, at 0.3 µM); 30% in experiment [2] (LYPLA1, inhibition, at 1 µM).
In the case of `COc1ccc(N2CCN(C(=O)n3ccnn3)CC2)cc1`, the inhibition was 85% (inactive) in experiment [1] (LYPLA2, at 10 µM); 10% in experiment [1] (LYPLA2, inhibition, at 0.3 µM); 30% in experiment [1] (LYPLA2, inhibition, at 1 µM); 90% (inactive) in experiment [2] (LYPLA1, at 10 µM); 20% in experiment [2] (LYPLA1, inhibition, at 0.3 µM); 50% in experiment [2] (LYPLA1, inhibition, at 1 µM).
For the compound `O=C(CN1CCN(C(=O)n2ncc(-c3ccc(Br)cc3)n2)CC1)Nc1cc(C(F)(F)F)ccc1Cl`, the inhibition in experiment [1] (LYPLA2, at 10 µM) is 75%; in experiment [1] (LYPLA2, inhibition, at 0.3 µM) it was 50%; in experiment [1] (LYPLA2, inhibition, at 1 µM), 40%; in experiment [2] (LYPLA1, at 10 µM), 80%; in experiment [2] (LYPLA1, inhibition, at 0.3 µM), 70%; in experiment [2] (LYPLA1, inhibition, at 1 µM), 70%.
`O=C(CN1CCN(C(=O)n2ncc(-c3ccc(-c4ccccc4)cc3)n2)CC1)Nc1cc(C(F)(F)F)ccc1Cl`: the inhibition in experiment [1] (LYPLA2, at 10 µM) was 30% (inactive); in experiment [1] (LYPLA2, inhibition, at 0.3 µM), 30%; in experiment [1] (LYPLA2, inhibition, at 1 µM) it was 30%; in experiment [2] (LYPLA1, at 10 µM) it was 30% (inactive); in experiment [2] (LYPLA1, inhibition, at 0.3 µM), 30%; in experiment [2] (LYPLA1, inhibition, at 1 µM) it was 30%.
Regarding `COc1ccc(N2CCN(C(=O)n3nc(Br)nc3Br)CC2)cc1`, the inhibition was 95% (inactive) in experiment [1] (LYPLA2, at 10 µM); 10% in experiment [1] (LYPLA2, inhibition, at 0.3 µM); 30% in experiment [1] (LYPLA2, inhibition, at 1 µM); 95% (inactive) in experiment [2] (LYPLA1, at 10 µM); 20% in experiment [2] (LYPLA1, inhibition, at 0.3 µM); 60% in experiment [2] (LYPLA1, inhibition, at 1 µM).
As for `COc1ccc(N2CCN(C(=O)n3nc(Br)c(Br)n3)CC2)cc1`, the inhibition in experiment [1] (LYPLA2, at 10 µM) is 100%; in experiment [1] (LYPLA2, inhibition, at 0.3 µM) it was 50%; in experiment [1] (LYPLA2, inhibition, at 1 µM), 80%; in experiment [2] (LYPLA1, at 10 µM) it was 95%; in experiment [2] (LYPLA1, inhibition, at 0.3 µM), 85%; in experiment [2] (LYPLA1, inhibition, at 1 µM) it was 95%.
Turning to `COc1ccc(N2CCN(C(=O)n3cc(-c4ccc(OC(F)(F)F)cc4)nn3)CC2)cc1`, the inhibition is 60% (inactive) in experiment [1] (LYPLA2, at 10 µM); 10% in experiment [1] (LYPLA2, inhibition, at 0.3 µM); 10% in experiment [1] (LYPLA2, inhibition, at 1 µM); 80% (inactive) in experiment [2] (LYPLA1, at 10 µM); 20% in experiment [2] (LYPLA1, inhibition, at 0.3 µM); 20% in experiment [2] (LYPLA1, inhibition, at 1 µM).
Take `COc1ccc(N2CCN(C(=O)n3cncn3)CC2)cc1`: the inhibition was 95% (inactive) in experiment [1] (LYPLA2, at 10 µM); 10% in experiment [1] (LYPLA2, inhibition, at 0.3 µM); 30% in experiment [1] (LYPLA2, inhibition, at 1 µM); 95% (inactive) in experiment [2] (LYPLA1, at 10 µM); 20% in experiment [2] (LYPLA1, inhibition, at 0.3 µM); 75% in experiment [2] (LYPLA1, inhibition, at 1 µM).
As to `O=C(CN1CCN(C(=O)n2ncc(-c3ccc(OC(F)(F)F)cc3)n2)CC1)Nc1cc(C(F)(F)F)ccc1Cl`, the inhibition was 95% (inactive) in experiment [1] (LYPLA2, at 10 µM); 30% in experiment [1] (LYPLA2, inhibition, at 0.3 µM); 30% in experiment [1] (LYPLA2, inhibition, at 1 µM); 90% (inactive) in experiment [2] (LYPLA1, at 10 µM); 30% in experiment [2] (LYPLA1, inhibition, at 0.3 µM); 30% in experiment [2] (LYPLA1, inhibition, at 1 µM).
`COc1ccc(N2CCN(C(=O)n3cc(C(O)(c4ccccc4)c4ccccc4)nn3)CC2)cc1`: the inhibition in experiment [1] (LYPLA2, at 10 µM) was 100% (inactive); in experiment [1] (LYPLA2, inhibition, at 0.3 µM) it was 20%; in experiment [1] (LYPLA2, inhibition, at 1 µM), 95%; in experiment [2] (LYPLA1, at 10 µM), 95%; in experiment [2] (LYPLA1, inhibition, at 0.3 µM), 85%; in experiment [2] (LYPLA1, inhibition, at 1 µM), 95%.
As to `COc1ccc(N2CCN(C(=O)n3ncc(-c4ccc(OC(F)(F)F)cc4)n3)CC2)cc1`, the inhibition in experiment [1] (LYPLA2, at 10 µM) is 20% (inactive); in experiment [1] (LYPLA2, inhibition, at 0.3 µM), 10%; in experiment [1] (LYPLA2, inhibition, at 1 µM), 10%; in experiment [2] (LYPLA1, at 10 µM) it was 20% (inactive); in experiment [2] (LYPLA1, inhibition, at 0.3 µM), 10%; in experiment [2] (LYPLA1, inhibition, at 1 µM), 10%.
On to `O=C(CN1CCN(C(=O)n2cc(-c3ccc(-c4ccccc4)cc3)nn2)CC1)Nc1cc(C(F)(F)F)ccc1Cl`, for which the inhibition was 30% (inactive) in experiment [1] (LYPLA2, at 10 µM); 30% in experiment [1] (LYPLA2, inhibition, at 0.3 µM); 30% in experiment [1] (LYPLA2, inhibition, at 1 µM); 30% (inactive) in experiment [2] (LYPLA1, at 10 µM); 30% in experiment [2] (LYPLA1, inhibition, at 0.3 µM); 30% in experiment [2] (LYPLA1, inhibition, at 1 µM).
In the case of `O=C(N1CCN(c2ccc(Br)cc2)CC1)n1ncc(C(O)(c2ccccc2)c2ccccc2)n1`, the inhibition is 80% (inactive) in experiment [1] (LYPLA2, at 10 µM); 20% in experiment [1] (LYPLA2, inhibition, at 0.3 µM); 30% in experiment [1] (LYPLA2, inhibition, at 1 µM); 100% (inactive) in experiment [2] (LYPLA1, at 10 µM); 40% in experiment [2] (LYPLA1, inhibition, at 0.3 µM); 90% in experiment [2] (LYPLA1, inhibition, at 1 µM).
As to `O=C(CN1CCN(C(=O)n2cc(-c3ccc(OC(F)(F)F)cc3)nn2)CC1)Nc1cc(C(F)(F)F)ccc1Cl`, the inhibition in experiment [1] (LYPLA2, at 10 µM) was 30% (inactive); in experiment [1] (LYPLA2, inhibition, at 0.3 µM), 30%; in experiment [1] (LYPLA2, inhibition, at 1 µM), 30%; in experiment [2] (LYPLA1, at 10 µM) it was 60% (inactive); in experiment [2] (LYPLA1, inhibition, at 0.3 µM), 30%; in experiment [2] (LYPLA1, inhibition, at 1 µM), 30%.
Consider `O=C(CN1CCN(C(=O)n2nccn2)CC1)Nc1cc(C(F)(F)F)ccc1Cl`, for which the inhibition is 95% (inactive) in experiment [1] (LYPLA2, at 10 µM); 30% in experiment [1] (LYPLA2, inhibition, at 0.3 µM); 40% in experiment [1] (LYPLA2, inhibition, at 1 µM); 95% (inactive) in experiment [2] (LYPLA1, at 10 µM); 30% in experiment [2] (LYPLA1, inhibition, at 0.3 µM); 60% in experiment [2] (LYPLA1, inhibition, at 1 µM).
Turning to `O=C(CN1CCN(C(=O)n2cc(C(O)(c3ccccc3)c3ccccc3)nn2)CC1)Nc1cc(C(F)(F)F)ccc1Cl`, the inhibition was 100% in experiment [1] (LYPLA2, at 10 µM); 60% in experiment [1] (LYPLA2, inhibition, at 0.3 µM); 85% in experiment [1] (LYPLA2, inhibition, at 1 µM); 95% in experiment [2] (LYPLA1, at 10 µM); 80% in experiment [2] (LYPLA1, inhibition, at 0.3 µM); 90% in experiment [2] (LYPLA1, inhibition, at 1 µM).
In the case of `O=C(CN1CCN(C(=O)n2nc(Br)nc2Br)CC1)Nc1cc(C(F)(F)F)ccc1Cl`, the inhibition in experiment [1] (LYPLA2, at 10 µM) was 100% (inactive); in experiment [1] (LYPLA2, inhibition, at 0.3 µM), 40%; in experiment [1] (LYPLA2, inhibition, at 1 µM), 75%; in experiment [2] (LYPLA1, at 10 µM), 95% (inactive); in experiment [2] (LYPLA1, inhibition, at 0.3 µM) it was 45%; in experiment [2] (LYPLA1, inhibition, at 1 µM), 85%.
Consider `O=C(N1CCN(c2ccc(Cl)c(Cl)c2)CC1)n1ncc(C(O)(c2ccccc2)c2ccccc2)n1`, for which the inhibition in experiment [1] (LYPLA2, at 10 µM) is 30% (inactive); in experiment [1] (LYPLA2, inhibition, at 0.3 µM), 20%; in experiment [1] (LYPLA2, inhibition, at 1 µM) it was 30%; in experiment [2] (LYPLA1, at 10 µM), 80% (inactive); in experiment [2] (LYPLA1, inhibition, at 0.3 µM), 30%; in experiment [2] (LYPLA1, inhibition, at 1 µM), 40%.
For `O=C(CN1CCN(C(=O)n2nc(Br)c(Br)n2)CC1)Nc1cc(C(F)(F)F)ccc1Cl`, the inhibition in experiment [1] (LYPLA2, at 10 µM) is 100%; in experiment [1] (LYPLA2, inhibition, at 0.3 µM), 85%; in experiment [1] (LYPLA2, inhibition, at 1 µM) it was 100%; in experiment [2] (LYPLA1, at 10 µM), 95%; in experiment [2] (LYPLA1, inhibition, at 0.3 µM) it was 90%; in experiment [2] (LYPLA1, inhibition, at 1 µM), 90%.
In the case of `O=C(CN1CCN(C(=O)n2cncn2)CC1)Nc1cc(C(F)(F)F)ccc1Cl`, the inhibition was 30% (inactive) in experiment [1] (LYPLA2, at 10 µM); 30% in experiment [1] (LYPLA2, inhibition, at 0.3 µM); 30% in experiment [1] (LYPLA2, inhibition, at 1 µM); 30% (inactive) in experiment [2] (LYPLA1, at 10 µM); 30% in experiment [2] (LYPLA1, inhibition, at 0.3 µM); 30% in experiment [2] (LYPLA1, inhibition, at 1 µM).
